Measurements reported in patent publication US20090092664A1, “POLYMER-METAL CHELATOR CONJUGATES AND USES THEREOF” (UNIVERSITY OF KENTUCKY RESEARCH FOUNDATION, priority 2007, published 2009).
One block for each compound: values may come before it.

What was measured:
[1] = test system: HL-60 cells; assay: Intracellular ROS (carboxy-H2DCFDA), HL-60 cells; type: cell-based, human; conditions: naive HL-60, carboxy-H2DCFDA 25 μM, 8 h after treatment
[2] = cited from earlier work
[3] = test system: HL-60 cells; assay: Cytotoxicity of PGA-D-pen conjugate (MTT), HL-60; type: cell-based, human; conditions: HL-60, 48 h
Description: (§4) Cell Culture and Cytotoxicity: The P388 cells and HL-60 cells were plated at 1×10^4 and 4×10^4 cells respectively in 200 μl of medium per well in round bottom 96-well microwell plates. The MDA-MB-468 cells were plated at 1×10^4 cells/well in 96-well flat bottom microwell plates and allowed to attach overnight. Equal volumes of PGA-D-pen conjugate, PGA, D-pen, PGA+D-pen or PBS were added and the plates were incubated for 48 h (37° C., 5% CO2). 20 μl of MTT reagent (5 mg/ml in PBS; Sigma) was added to each well and re-incubated for 3-4 h to allow formation of formazan crystals. The round bottom plates were centrifuged at 200 g for 5 min. Subsequently, the supernatant was aspirated and 200 μl of DMSO were added to each well and the plate was incubated at room temperature for 1 h to lyse the cells and solubilize formazan. The optical density of each well at 570 nm was measured on a Synergy™ 2 Multi-Detection Microplate Reader (Biotek, Winooski, Vt.). Percent viability in treated wells was calculated as the percentage of optical density in control wells.

[4] = test system: P388 cells; assay: Cytotoxicity of PGA-D-pen conjugate (MTT), P388; type: cell-based; conditions: P388, 48 h
Description: as §4

[5] = test system: HL-60 cells; assay: Intracellular ROS (H2DCFDA), HL-60 cells; type: cell-based, human; conditions: D-pen 200 μM, cupric sulfate 10 μM, catalase 500 U/mL with D-pen plus cupric sulfate
Description: (§1) FIGS. 4A-B: D-pen in the presence of cupric sulfate generates intracellular ROS in breast cancer and leukemia cells. […] Cells were incubated without (positive control) or with H2O2, H2O2 plus catalase, cupric sulfate, D-pen, D-pen plus cupric sulfate, D-pen plus cupric sulfate plus catalase in media. Unloaded cells were used as negative control. The cell associated fluorescence was measured at 30, 60, 90 min at excitation and emission of 485±20 nm and 530±25 nm, respectively. Data are reported as the DCF fluorescence (fold increase versus control).
(§2) 2′-7′-dichlorodihydrofluorescein diacetate (H2DCFDA) was used as an indicator of intracellular ROS generation. H2DCFDA is a cell permeable probe, it enters the cell and is deacetylated to a non-fluorescent product, 2′-7′-dichlorodihydrofluorescein (H2DCF) by cellular esterases and is oxidized by ROS to a fluorescent product, 2′-7′-dichlorofluorescein (DCF). MCF-7 and HL-60 cells were loaded with H2DCFDA and were seeded in a 96 well plate at a concentration of 3×10^4 cells/well. Briefly, cells were incubated with PBS buffer containing 5 μM H2DCFDA (dissolved in DMSO) for 30 min at 37° C. H2DCFDA was then removed and cells were washed twice with fresh PBS to remove excess H2DCFDA. Cells were then incubated with either drug in media or media alone (positive control). Non-H2DCFDA loaded cells were used as negative control. The fluorescence of control and sample wells was recorded at excitation 485±20 nm, emission 530±25 nm with Biotek FL600 (Biotek Instruments, Winooski, Vt.) at 30, 60, and 90 min. Then data is reported as DCF fluorescence (fold increase vs. control) corresponding to the increase of fluorescence associated with the sample cells compared to that of untreated cells.

[6] = cited from earlier work; remark: listed apart in the source
[7] = test system: HL-60 cells; type: cell-based, human
Description: FIG. 19: Cellular uptake of D-pen. D-pen (100 μM) was added to HL-60 (1×10^6) cells in PBS (pH 7.4) in a 24-well plate at 37° C. in 5% CO2 incubator. Cells were separated by centrifugation and the supernatant was analyzed by HPLC assay for D-pen concentration. Data represents mean±SD (n=4).
Quantitative cell uptake of free D-pen. The quantitative cell uptake of free D-pen was investigated in HL-60 cells. Briefly, D-pen (100 μM) was incubated with HL-60 (1×10^6) cells in PBS, pH 7.4 at 37° C. in a 5% CO2 incubator. Cells were incubated for 1-4 h. At pre-determined time the cells were separated by centrifugation and the supernatant was analyzed for the remaining concentration of D-pen as present as either free D-pen or D-pen disulfide using the HPLC assay previously described (Gupte and Mumper, 2007).

[8] = test system: MCF-7 cells; assay: Intracellular ROS (H2DCFDA), MCF-7 cells; type: cell-based, human; conditions: for intracellular ROS generation (in words): D-pen 200 μM, cupric sulfate 10 μM, catalase 500 U/mL with D-pen plus cupric sulfate
Description: as §1, §2

[9] = test system: MDA-MB-468 cells; assay: Cytotoxicity of PGA-D-pen conjugate (MTT), MDA-MB-468; type: cell-based; conditions: MDA-MB-468, 48 h
Description: as §4

[10] = test system: MCF-7 cells
Description: (§5) Cell viability was determined with MTT assay. Absorbance was measured at 595 nm and adjusted to the absorbance of untreated cells. Data represent mean±SE; n=12 (two independent experiments performed in n=6). Inhibitory concentration (IC50) was reported as mean±S.E.
(§6) Cell viability was measured using the 3-(4,5-dimethyl-2-yl)-2,5-diphenylteraolium bromide (MTT) assay. The adherent breast cancer cells (MCF-7 and BT474) were seeded at an initial concentration of 3×10^4 cells/well 24 h prior to the commencement of the experiments to allow them to attach, while the suspension leukemia cells, HL-60, HL-60-/VCR and HL-60/ADR were seeded at 3×10^4 cells/well on the same day of the experiment in a 96 well plate. […] The MTT assay was performed at 48 h and absorbance was measured with the microplate reader (Biotek ELx 800, Biotek Instruments, Winooski, Vt.) at a wavelength of 595 nm. Data is reported as cell viability (% control) and corresponds to the percent viable cells compared to untreated cells.
(§7) Data are represented as the mean±standard error (SE). Each experimental group consisted of n=6 and experiments were repeated two times. […] The IC50 was calculated with GraphPad Prism® non-linear regression program.

[11] = test system: BT474 cells; assay: MTT cell viability assay, BT474 breast cancer cells; type: cell-based, human
Description: FIGS. 2A-B: […] Cell viability was determined with MTT assay. […] Inhibitory concentration (IC50) was reported as mean±S.E. […] Data are represented as the mean±standard error (SE). […] San Diego, Calif.).

[12] = test system: HL-60/VCR cells; assay: MTT cell viability assay, HL-60/VCR leukemia cells; type: cell-based, human
Description: (§3) FIGS. 1A-B: […] Cell viability was determined with the MTT assay. […] Data are represented as the mean±standard error (SE). […] San Diego, Calif.).

[13] = test system: HL-60 cells; assay: cells; conditions: Homo sapiens, HL-60, 48 h
Description: Cell viability was determined with the MTT assay. Absorbance was measured at 595 nm and adjusted to the absorbance of untreated cells. Data represent mean±SE; n=12 (two independent experiments performed in n=6). Inhibitory concentrations (IC50) were reported as the mean±S.E in the figure legend.
as §6, §7

[14] = test system: MCF-7 cells; assay: cells; conditions: Homo sapiens, MCF7, 48 h
Description: as §5, §6, §7

[15] = test system: HL-60/ADR cells; assay: MTT cell viability assay, HL-60/ADR leukemia cells; type: cell-based, human
Description: as §3

[16] = test system: HL-60 cells; assay: In-vitro cytotoxicity of gelatin-D-pen conjugate (MTT); conditions: cupric sulfate up to 100 μM, p>0.05 versus control
Description: Cells (2×10^4) were incubated with gelatin alone (1 mg/mL), D-pen alone (100 μM), gelatin (1 mg/mL) plus D-pen (100 μM), and gelatin-D-pen conjugate (1 mg/mL) After every 2 day interval media was replaced with fresh media. MTT assay was performed on day 2, 4, 6, 8 and 10. Data represents mean±SD (n=6). **p<0.01 and ***p<0.001 compared to gelatin plus D-pen.
In-vitro cytotoxicity of gelatin-D-pen conjugate. The HL-60 cells were seeded at a density of 2×10^4 cells/mL in a 96 well plate. […] The above experiments were repeated with the copper pre-treated cells. Cell viability was determined at 24 and 72 h with MTT assay.

[17] = test system: HL-60 cells; conditions: cupric sulfate alone 0.1-50 μM, data not shown
[18] = cupric sulfate alone 0.1-50 μM, data not shown

cell uptake of free D-pen (in words) [7]: not to enter leukemia cells
Compound: CC(C)(S)[C@@H](N)C(=O)O [D-pen, D-penicillamine]
intracellular ROS levels (in words) [1]: no increase in intracellular ROS
half-life, biphasic elimination from the blood, first value [2]: 6 to 7 min
half-life, biphasic elimination from the blood, second value [2]: 52 to 55 min
reduction in cell viability (in words) [3]: did not cause significant reduction in cell viability
reduction in cell viability (in words) [4]: did not cause significant reduction in cell viability
intracellular ROS generation (in words) [5]: failed to produce any ROS
Log P [6]: −0.39
intracellular ROS generation (in words) [8]: failed to produce any ROS
reduction in cell viability (in words) [9]: did not cause significant reduction in cell viability

fold difference between IC50 of D-pen plus cupric sulfate and IC50 of H2O2 alone [10]: approximately 2 fold
fold difference between IC50 of D-pen plus cupric sulfate and IC50 of H2O2 alone ([11]; BT474): ~3 fold
IC50 ([11]; Homo sapiens, BT-474, BT474, 48 h, MTT): 96.1 ± 1.1 µM
fold difference between IC50 of D-pen plus cupric sulfate and IC50 of H2O2 alone [12]: ~4 fold
IC50 ([12]; Homo sapiens, HL60/VCR, 48 h, MTT, D-pen with cupric sulfate 10 μM): 31.5 ± 1.1 µM
IC50 [13]: 20 ± 1 µM
IC50 [14]: 116 ± 1.6 µM
IC50 ([15]; Homo sapiens, HL60/ADR, 48 h, MTT, D-pen (1-400 μM) with cupric sulfate 10 μM): 162.5 ± 1.1 µM
Compound: OO [H2O2, hydrogen peroxide]
ROS generated compared to D-pen plus cupric sulfate ([8]; H2O2 alone 100 μM): 5 fold

Compound: O=S(=O)([O-])[O-].[Cu+2] [cupric sulfate]
intracellular ROS generation (in words) [5]: failed to produce any ROS
intracellular ROS generation (in words) [8]: failed to produce any ROS
effect of copper pre-treatment on cell number or viability [16]: did not result in statistically significant decrease in cell number or viability
loss in cell viability [12, 18]: did not result in any appreciable loss in cell viability
loss in cell viability [17]: did not result in any appreciable loss in cell viability
loss in cell viability [15, 18]: did not result in any appreciable loss in cell viability

Compound: CCCCCCOC(=O)[C@H](N)C(C)(C)S [hexyl-D-pen-ester]
Log P [6]: 1.61

Compound: catalase
intracellular ROS generation (in words) [5]: completely inhibited ROS generation
intracellular ROS generation (in words) [8]: completely inhibited ROS generation
